The values below come from patent US20200254050A1, “STABLE COMPOSITIONS OF NEUROACTIVE PEPTIDES” (Naurex Inc., priority 2014, published 2020).

The nature of this data set: pH stability study of GLYX-13 150 mg/mL HCl formulations (40° C., 3 weeks), HPLC assay and related substances. In kind it is physicochemical. As for the experimental part: Column: Waters Spherisorb ODS2, 3 μm, 4.6×250 mm, Part # PSS832115
Mobile phase A: 2.2 g/L heptanesulfonic acid, 6.7 g/L potassium dihydrogen phosphate, pH 2.5
Mobile phase B: 70/30 Methanol/Water
Column temperature: 40±1° C.
Sample temperature: 4±1° C.
Four formulations were prepared to examine dissolution of the drug based (Table 2). Each formulation was prepared at 35 mL and contained 5.25 g of GLYX-13.
Each formulation was prepared by adding the drug to a beaker and adjusting the volume to approximately 26 mL using purified water. The pH was adjusted using 5 M HCl that was added in small increments. The solution was mixed for 10 minutes after each adjustment and mixed for 30 minutes after reaching the desired pH. The pH of the solution was checked after 30 minutes and adjusted if needed. The solution was adjusted to 35 mL using purified water when a drift in pH was no longer observed. Each formulation was filled into vials (2.5 mL/vial), sealed with a stopper, and capped. The formulations were stored at 40° C. for 3 weeks and samples were removed weekly. All weekly samples were examined for appearance, tested for pH, assay and related substances using the HPLC assay.
Data were analyzed using the appropriate software designed for the assay and impurities HPLC method. Impurity 1 (RRT 0.43) is cyclo-proline-threonine (“diketopiperazine”). Impurity 2 (RRT 0.57) is proline-threonine amide. […]

Each structure is given as a SMILES string. Residues, ends and D or L forms follow the SMILES beside them.

On to `CC(O)C(N)C(=O)N1CCCC1C(=O)N1CCCC1C(=O)NC(C(N)=O)C(C)O` (stereo not shown) [GLYX-13] (H-TPPT-NH2; configuration not given here), for which the “rate of impurity formation at pH 7, fold greater than the rate at pH 4” value is recorded as “approximately 6 fold”.
